Patent US6121241A, “Anticoagulant peptide aldehyde derivatives” (Gyogyszerkutato Intezet Kft., priority 1996, dated 2000)
Structures can show the parent of a compound that is named as a salt. Where two headings read alike, the source gives them in different places. Each block holds one molecule with its values, some of them ahead of it. Square brackets hold non-standard residues; d marks the D form. Peptide text beside a SMILES is read from it. * marks the point of attachment. 1Nal = N[C@@H](Cc1cccc2ccccc12)C(=O)O; Boc = CC(C)(C)OC(=O)*

Assays:
[1] = tested on: citrate plasma coagulation (APTT); assay: Activated partial thromboplastin time (APTT) plasma clotting test; type: biochemical; details: concentration doubling clotting time
Method: (§1) Anticoagutant activity (i.e. inhibition of the proteolytic reactions in the process) is measured by anticoagulant tests, e.g. by the thrombin time (TT), activated partial thromboplastin time (APTT) and prothrombin time (PT) tests [E. J. W. Bovie et al; Mayo Clinic Laboratory Manual of Hemostasis; W. B. Sanuders Co., Philadelphia (1971)]. Plasma, inhibited in spontaneous coagulation, e.g. citrate-plasma, is made to coagulate and the required coagulation time is measured. Upon the action of anticoagulants the coagulation time is prolonged proportionally to the inhibition of the reaction(s) in the process. The anticoagulant effect can be characterized by the substance concentration required to double the coagulation time compared to the control (IC50). The effect of anticoagulants on individual coagulant proteases is measured by the amidolytic method [R. Lottenberg et al., Methods in Enzymol. 80, 341 (1981); G. Cleason, Blood Coagulation and Fibrinolysis 5, 411 (1994)]. The isolated active factor (e.g. thrombin, fXa) and its chromogen or fluorogen peptide-amide substrate are reacted in the presence or absence of the inhibitor, resp. The enzyme inhibiting action is characterized by the inhibitory constant (IC50) measured during amidolysis.
(§2) In the TT test coagulation is initiated by the thrombin added to the citrate plasma. In the system 22 pmol/mL of thrombin is functioning and in the presence of plasma components its inhibition can be measured on the fibrinogen (one of the natural substrates of thrombin) present In the APTT and PT tests the full coagulation process is made to proceed. Depending on the activator fX is activated by the extrinsic or intrinsic pathway. The generated fXa activates prothrombin to thrombin which, in turn, triggers plasma coagulation. In the test the coagulation time is prolonged if the enzymes or one of them is inhibited by the inhibitor. In the APTT and PT tests at most 40 pmole/ml Xa is generated (this is the full amount of factor X present in both systems) while 150 pmole/ml (APTT) and 350 pmole/ml (PT) are generated from thrombin [B Kaiser et al., Thromb. Res. 65, 157 (1992)].
(§3) The in vitro anticoagulant effect of the compounds of general formula (I) was measured by the prothrombin time (PT), activated partial thromboplastin time (APTT) and thrombin time (TT) tests [D. Bagdy et at., Thromb. Haemost. 67, 325 (1992)]. The Xa-factor-inhibiting effect of the compounds was also determined by using the Bz-Ile-Glu-Gly-Arg-pNA chromogen substrate (see method M6).

human factor Xa = molecular target: T1, human factor Xa (Homo sapiens, UniProt P00742); assay: Inhibition of the amidolytic effect of factor Xa in solution on Bz-Ile-Glu-Gly-Arg-pNA (method M6); type: biochemical
T1 construct: purchased SIGMA
T1 sequence (P00742 235-488 limits assumed): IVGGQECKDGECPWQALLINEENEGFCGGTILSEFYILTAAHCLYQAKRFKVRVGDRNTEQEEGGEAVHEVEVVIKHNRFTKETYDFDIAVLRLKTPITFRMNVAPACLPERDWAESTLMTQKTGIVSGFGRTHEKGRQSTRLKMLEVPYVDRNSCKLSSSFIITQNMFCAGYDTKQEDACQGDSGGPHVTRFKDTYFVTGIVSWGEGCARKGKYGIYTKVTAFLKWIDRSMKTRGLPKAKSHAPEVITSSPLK
T1 sequence (P00742 41-179 partner limits assumed): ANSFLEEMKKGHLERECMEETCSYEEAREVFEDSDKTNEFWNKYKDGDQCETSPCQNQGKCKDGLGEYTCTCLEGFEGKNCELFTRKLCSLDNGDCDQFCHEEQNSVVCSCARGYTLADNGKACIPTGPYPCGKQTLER
Method: as §1, §3
Assay of the Inhibition of Factor Xa in Solution on a 96-well Microtiter Plate
a) 1.3 U/mL factor Xa (human, SIGMA), 0.1-1.0-10 and 100 μg/mL solutions in phosphate buffer (0.1 M sodium phosphate and 0.05 M sodium chloride, pH 7.4) of the peptide inhibitors and […] solutions of the substrate Bz-Ile-Glu-Gly-Arg-pNA in distilled water are used.
b) Three reaction mixtures are prepared from the control and each peptide solution. 30 μL each of the peptide and the buffer, serving as control, 30 μL factor Xa, 90 μL butter and 150 μL substrate are placed in the wells of the plate, then after 10 minutes the extinction values are read at 405 nm The procedure is continued as described in Method M2, point c).

thrombin [2] = molecular target: T2, thrombin (Homo sapiens, UniProt P00734); assay: Thrombin time (TT) plasma clotting test; type: biochemical; details: concentration doubling clotting time
T2 construct: The isolated active factor (e.g. thrombin, fXa) and its chromogen or fluorogen peptide-amide substrate are reacted
Method: as §1, §2, §3

fXa = fXa (Homo sapiens, UniProt P00742); details: Z-D-Arg-Gly-Arg-pNA substrate; according to the literature; read-out: IC50, amidolytic activity of fXa; cited from earlier work
Sequence of fXa (P00742 235-488 limits assumed): as the sequence (P00742 235-488 limits assumed) above
Sequence of fXa (P00742 41-179 partner limits assumed): as the sequence (P00742 41-179 partner limits assumed) above

[3] = tested on: citrate plasma coagulation (PT); assay: Prothrombin time (PT) plasma clotting test; type: biochemical; details: concentration doubling clotting time
Method: as §1, §2, §3

[4] = molecular target: tissue plasminogen activator (tPA) (Homo sapiens, UniProt P00750); assay: Fibrin-plate method, plasmin formation induced by tPA; type: biochemical; details: for IC50: fibrin-plate method, hydrolyzed area reduced by 50%
Sequence of tissue plasminogen activator (tPA) (P00750 36-562, species assumed): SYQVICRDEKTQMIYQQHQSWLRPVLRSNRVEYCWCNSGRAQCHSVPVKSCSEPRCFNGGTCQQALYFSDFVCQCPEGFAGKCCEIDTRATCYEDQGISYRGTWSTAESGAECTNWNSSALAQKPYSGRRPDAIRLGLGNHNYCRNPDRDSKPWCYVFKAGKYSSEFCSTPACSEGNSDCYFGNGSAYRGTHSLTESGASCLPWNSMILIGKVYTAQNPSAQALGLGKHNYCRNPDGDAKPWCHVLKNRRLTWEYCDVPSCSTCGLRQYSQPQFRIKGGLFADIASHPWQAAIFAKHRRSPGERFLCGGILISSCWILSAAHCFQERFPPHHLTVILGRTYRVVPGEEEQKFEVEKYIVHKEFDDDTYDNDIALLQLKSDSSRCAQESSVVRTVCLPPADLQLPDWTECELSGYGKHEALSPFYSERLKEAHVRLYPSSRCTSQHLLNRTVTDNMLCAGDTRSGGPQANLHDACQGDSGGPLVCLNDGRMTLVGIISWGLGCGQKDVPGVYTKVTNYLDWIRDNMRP
Source text: (§4) The inhibitory effect of the new compounds of the invention on plasmin (PL) as well as on plasmin formation induced by tissue plasminagen activator (tPA) and urokinase (UK) was studied by the […] [D. Bagdy et al.; Thromb. Haemost. 67, 325 (1992)]. Compounds C1 and C3 served as controls. […] V. Jackson et al., J. Cardiovasc. Pharmacol. 21, 587 (1993)].
(§5) ^a IC50 = peptide concentration (mM) where the hydrolyzed area o
(§6) the fibrin plate is reduced by 50% compared to the control

urokinase (UK) = urokinase (UK) (Homo sapiens, UniProt P00749); assay: Fibrin-plate method, plasmin formation induced by urokinase; type: biochemical; details: for IC50: fibrin-plate method, hydrolyzed area reduced by 50%
Source text: as §4, §5, §6

plasmin (PL) = plasmin (PL) (Homo sapiens, UniProt P00747); assay: Fibrin-plate method, plasmin; type: biochemical; details: for IC50: fibrin-plate method, hydrolyzed area reduced by 50%
Sequence of plasmin (PL) (P00747 581-810 limits assumed, species assumed): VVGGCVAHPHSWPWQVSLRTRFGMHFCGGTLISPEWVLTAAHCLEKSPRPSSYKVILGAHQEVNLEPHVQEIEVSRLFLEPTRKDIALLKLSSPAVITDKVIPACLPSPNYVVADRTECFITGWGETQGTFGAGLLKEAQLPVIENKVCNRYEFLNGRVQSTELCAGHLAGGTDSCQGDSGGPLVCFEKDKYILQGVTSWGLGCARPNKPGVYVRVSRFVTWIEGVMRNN
Sequence of plasmin (PL) (P00747 97-580 partner limits assumed, species assumed): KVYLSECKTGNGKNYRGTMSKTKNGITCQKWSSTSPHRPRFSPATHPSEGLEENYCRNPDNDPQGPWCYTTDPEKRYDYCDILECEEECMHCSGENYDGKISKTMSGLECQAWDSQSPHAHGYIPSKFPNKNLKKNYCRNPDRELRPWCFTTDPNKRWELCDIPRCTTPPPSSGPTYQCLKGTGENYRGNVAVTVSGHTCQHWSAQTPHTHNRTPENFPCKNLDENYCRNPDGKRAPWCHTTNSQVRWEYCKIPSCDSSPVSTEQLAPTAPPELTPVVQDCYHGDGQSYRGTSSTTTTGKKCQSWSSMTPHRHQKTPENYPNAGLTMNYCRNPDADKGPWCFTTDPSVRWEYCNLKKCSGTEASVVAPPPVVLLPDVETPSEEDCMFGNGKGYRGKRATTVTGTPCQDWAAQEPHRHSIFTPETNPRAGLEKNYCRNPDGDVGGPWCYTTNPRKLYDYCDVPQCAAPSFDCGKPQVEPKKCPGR
Source text: as §4, §5, §6

[5] = tested on: citrate plasma coagulation (APTT); details: Table 1; published value; read-out: B: IC50, APTT; cited from earlier work
thrombin [6] = molecular target: T2, thrombin; details: specific fXa inhibitors, literature; cited from earlier work
[7] = tested on: citrate plasma coagulation (PT); details: Table 1; published value; read-out: B: IC50, PT; cited from earlier work
[8] = molecular target: T3, plasma clot entrapped thrombin (Homo sapiens, UniProt P00734); assay: Inhibition of thrombin entrapped in plasma clot (methods M1, M3); type: biochemical; details: platelet-rich human plasma clot; Tos-Gly-Pro-Arg-pNA substrate
T3 construct: Here prothrombin is converted to thrombin; from tissue; host or cells: clot of recalcified platelet-rich human citrate plasma
Method: (§7) The plasma clot was obtained by the recalcification of platelet-rich human citrate plasma and fibrin gel by the coagulation of human fibrinogen with human thrombin Z-D-Arg-Gly-Arg-pNA and Tos Gly-Pro-Arg-pNA were used as substrates for measuring the activity of factor Xa and thrombin (methods M1-M5).
Preparation of Plasma Clot
a) Platelet-rich plasma (PRP) is prepared by centrifuging a 9:1 mixture of human blood and 3.8% aqueous sodium citrate solution (1/2) for 5 minutes at 240×g.
b) 200 μL of PRP are placed in each reaction vessel, 80 μL of 40 mM calcium chloride solution is added and the mixture is left to stand at room temperature for one hour. The plasma clot formed is rinsed mildly with 6×2 ml of 0.9% sodium chloride solution followed by 5 minute sedimentation to remove the dissolved enzymes (factor Xa and thrombin). The thrombin content of the washings is assayed as follows.
c) To 400 μL of washing liquid 100 μL of 1 mM Tos-Gly-Pro-Arg-pNA substrate solution is added and the mixture is incubated for 30 minutes at 37° C., then the reaction is stopped by the addition of 100 μL of 50% acetic acid. 150 μL portions of this mixture are transferred into the wells of the 96-well microtiter plate and the extinction is measured at 405 nm (ELISA READER SLT Laborinstrument GmbH, Austria). When the washing is successful, the extinction is less than 5% of the control
Assay of the Inhibition of Thrombin Entrapped in Plasma Clot
a) Peptide inhibitor solutions are prepared by the process described in Method M2, point a).
b) After draining the washing liquid, 400 μL of the peptide solution (3 parallel samples for each concentration) and 400 μL of buffer, serving as control, are placed on the clot (Method M1) and the mixture is incubated for 5 minutes at 37° C. Thereafter 100 μL of […] Tos-Gly-Pro-Arg-pNA substrate solution is added and incubation at 37° C. is continued for further 30 minutes, then the reaction is stopped by the addition of 100 μL of 50% acetic acid. The operation is continued as described in Method M2, point c).

[9] = molecular target: T4, fibrin-gel bound thrombin (Homo sapiens, UniProt P00734); assay: Inhibition of thrombin bound to fibrin-gel (methods M4, M5); type: biochemical; details: Tos-Gly-Pro-Arg-pNA substrate
T4 construct: Here prothrombin is converted to thrombin; purchased SIGMA
Method: as §7
Preparation of Fibrin-Gel
a) 200 μL of 6 mg/mL human fibrinogen (SIGMA), 25 μL of 25 NIH U/mL human thrombin (SIGMA) and 40 μL of 100 mM calcium chloride solution are placed in each reaction vessel and the mixtures are stored for one hour at 20-22° C. The fibrin formed is rinsed mildly with 3×2 ml of isotonic saline solution followed by sedimentation to remove the thrombin content of the solution. The efficacy of rinsing is controlled by the process described in Method M1, point c).
Assay of the Inhibition of Thrombin Bound to Fibrin-Gel
a) 0.1-1.0-10 and 100 μg/ml solutions are prepared with Hepes/NaCl buffer (0.01 M Hepes and 0.1 M sodium chloride, pH=7.4).
b) Thereafter the procedure described in Method M3, point b) is followed.

[10] = Table 1, read-out: B: IC50, APTT
[11] = Table 1, Bz-Ile-Glu-Gly-Arg-pNA chromogen substrate, read-out: A: IC50 (fXa inhibiting effect)
[12] = related to the activity of C1 (1/IC50 = 1)
[13] = Table 2, read-out: A: IC50, APTT
[14] = Table 2, Bz-Ile-Glu-Gly-Arg-pNA, isolated human factor Xa, read-out: B: IC50 (factor Xa inhibiting effect)

Molecule: CC(C)(C)OC(=O)N[C@H](Cc1ccccc1)C(=O)N1CCC[C@H]1C(=O)N[C@H](C=O)CCCNC(=N)N [Boc-D-Phe-Pro-Arg-H]
IC50 [4]: 6000 nM
B: relative efficacy, tPA [4, 12]: 22.0
IC50 (urokinase (UK)): 3000 nM
B: relative efficacy, UK (urokinase (UK); [12]): 27.3
IC50 (plasmin (PL)): 12000 nM
B: relative efficacy, PL (plasmin (PL); [12]): 4.5

Molecule: CC(=N)N1CC[C@H](Oc2ccc([C@H](Cc3ccc4ccc(C(=N)N)cc4c3)C(=O)O)cc2)C1 [Compound C2, (+)-(2S)-2-[4[[(3S)-1-acetimidoyl-3-pyrrolidinyl]oxy]phenyl]-3-[7[amidino-2-naphthyl]-propionic acid hydrochloride pentahydrate]
IC50 [5]: 970 nM
activity in the TT test (thrombin [6]): fail to exert any activity
IC50 [7]: 520 nM

Molecule: TAP: 60-member polypeptide isolated from tick, fXa inhibitor (YNRLCIKPRDWIDECDSNEGGERAYFRNGKGGCDSFWICPEDHTGADYYSSYRDCFNACI; UniProt P17726 1-60, looked up)
activity in the TT test (thrombin [6]): fail to exert any activity

Molecule: N=C(N)NCCC[C@@H](C=O)NC(=O)[C@H]1CCCN1C(=O)C(O)C1CCCC1.N=C(N)NCCC[C@@H](C=O)NC(=O)[C@H]1CCCN1C(=O)C(O)C1CCCC1.O=S(=O)(O)O (stereo partly drawn) [Compound 2, D-2-Cyclopentyl-2-hydroxyacetyl-L-prolyl-L-arginine aldehyde hemisulfate]
IC50 [1, 13]: 710 nM
IC50 (human factor Xa; [14]): 107 nM
IC50 (thrombin [2]; Table 2, read-out: A: IC50, TT): 100 nM
B: relative efficacy, tPA [4]: 1.2
IC50 [4]: 112000 nM
times lower activity than compound C3, second enzyme (tPA) ([4]; versus C3 of Table 4): 12
B: relative efficacy, UK (urokinase (UK)): 0.6
IC50 (urokinase (UK)): 137000 nM
times lower activity than compound C3, third enzyme (UK) (urokinase (UK); versus C3 of Table 4): 39
IC50 ([3]; Table 2, read-out: A: IC50, PT): 2030 nM
B: relative efficacy, PL (plasmin (PL)): 0.13
IC50 (plasmin (PL)): 390000 nM
times lower activity than compound C3, first enzyme (PL) (plasmin (PL); versus C3 of Table 4): 7.5

Second part, led by results:

IC50 [1, 10]: 9960 nM
IC50 (human factor Xa; [11]): 86 nM
IC50 (thrombin [2]; Table 1, read-out: B: IC50, TT): 17200 nM
IC50 ([3]; Table 1, read-out: B: IC50, PT): 53600 nM
Molecule: CC(C)(C)OC(=O)N[C@H](Cc1ccccc1)C(=O)N[C@@H](Cc1cccc2ccccc12)C(=O)N[C@H](C=O)CCCN=C(N)N [Compound C4, Boc-D-Phe-Nal(1)-Arg-H] (Boc-[dF]-[1Nal]-Arg-aldehyde)
IC50 (fXa): 30 nM

IC50 [1, 13]: 790 nM
IC50 [8]: 270 nM
IC50 (human factor Xa; [14]): 247 nM
IC50 (thrombin [2]; Table 2, read-out: A: IC50, TT): 220 nM
IC50 [9]: 220 nM
IC50 ([3]; Table 2, read-out: A: IC50, PT): 2140 nM
Molecule: NC(N)=NCCC[C@@H](C=O)NC(=O)[C@@H]1CCCN1C(=O)[C@H](O)C1CCCCC1 [Compound C5, D-Hma-Pro-Arg-H]

IC50 [1, 10]: 4590 nM
IC50 (human factor Xa; [11]): 64 nM
IC50 (thrombin [2]; Table 1, read-out: B: IC50, TT): 870 nM
IC50 ([3]; Table 1, read-out: B: IC50, PT): 19300 nM
Molecule: 4-MeP-Asp-Pro-Arg-H [Compound C3]
IC50 (fXa): 57 nM
